Laboratory results: publication PMC3090394 (2011)

Tests used:
[1] = test system: oligo II, d-(GGGCGGCCGCCC)2, GC-rich oligonucleotide (DNA, duplex) GGGCGGCCGCCC; assay: ITC; details: Na+ 100 mM (NaCl), 10 mM HEPES, pH 7.0, 25°C; for binding: 1000 µM ligand titrated into 10 µM DNA, nd
[2] = test system: oligo I, d-(GGGATATATCCC)2, AT-rich oligonucleotide (DNA, duplex) GGGATATATCCC; assay: ITC; details: Na+ 100 mM (NaCl), 10 mM HEPES, pH 7.0, 25°C; for Ka: apparent, (K1K2)^1/2 of two binding events; for binding: 1000 µM ligand titrated into 10 µM DNA, nd

binding constant ([1]; control titration) | binding constant ([2]; control titration) | binding [1] | Ka [2] | binding [2] | SMILES
~ 0.7×10^5 M^−1 | ~ 0.7×10^5 M^−1 | – | – | – | CC[n+]1c(-c2ccccc2)c2cc(N)ccc2c2ccc(N)cc21
– | – | no | 2.7±0.3 ×10^5 M^−1 | – | Cn1cc(NC(=O)c2cc(NC(=O)c3cccn3C)cn2C)cc1C(=O)NCCCn1cc(CN2CCCNCCNCCCNCC2)nn1
– | – | no | 1.2±0.2 ×10^5 M^−1 | – | Cn1cc(NC(=O)c2cc(NC(=O)c3cccn3C)cn2C)cc1C(=O)NCCCn1cc(CN2CCCNCCNCCCNCC2)nn1.[Cu+2]
– | – | no | 1.5±0.3 ×10^5 M^−1 | – | Cn1cc(NC(=O)c2cc(NC(=O)c3cccn3C)cn2C)cc1C(=O)NCCCn1cc(CN2CCCNCCNCCCNCC2)nn1.[Zn+2]
– | – | no | – | no | Cn1cc(NC(=O)c2cccn2C)cc1C(=O)NCCCn1cc(CN2CCCNCCNCCCNCC2)nn1
– | – | no | – | no | Cn1cccc1C(=O)NCCCn1cc(CN2CCCNCCNCCCNCC2)nn1
